Non-standard residues stand in square brackets, D forms with d. Residues, ends and D or L forms follow the SMILES beside them.
Experiments:
[1] = not given; remark: listed apart in the source
[2] = not given; remark: listed apart in the source
[3] = not given; remark: listed apart in the source

**Q.** With `CC(C)C[C@@H](NC(=O)[C@@H](Cc1c[nH]c2ccccc12)NC(=O)[C@@H](CCCNC(=N)N)NC(=O)[C@@H](C)NC(=O)[C@@H](CC(C)C)NC(=O)[C@@H](Cc1c[nH]c2ccccc12)NC(=O)[C@@H](CCCNC(=N)N)NC(=O)[C@@H](CC(C)C)NC(=O)[C@@H](CC(C)C)NC(=O)[C@@H](CCCNC(=N)N)NC(=O)[C@@H](CO)NC(=O)[C@@H](CC(C)C)NC(=O)[C@@H](Cc1c[nH]c2ccccc12)NC(=O)[C@@H](CCCNC(=N)N)NC(=O)[C@@H](CC(C)C)NC(=O)[C@@H](CC(C)C)NC(=O)[C@@H](Cc1c[nH]c2ccccc12)NC(=O)[C@H](N)CCCCN)C(=O)NCC(=O)O` (H-[dK][dW][dL][dL][dR][dW][dL][dS][dR][dL][dL][dR][dW][dL][dA][dR][dW][dL]G-OH) as the compound, how does the Tryptophan fluorescence emission maximum with siRNA read?
**A.** Its Tryptophan fluorescence emission maximum with siRNA is 340 nm.

**Q.** And the Blue shift of tryptophan fluorescence with excess liposomes [1]?
**A.** Its Blue shift of tryptophan fluorescence with excess liposomes is 10 nm.

**Q.** What about the Tryptophan fluorescence emission maximum, free peptide [2] of the same compound?
**A.** The Tryptophan fluorescence emission maximum, free peptide was 345 nm.

**Q.** For `CC(C)C[C@@H](NC(=O)CN)C(=O)N[C@H](Cc1c[nH]c2ccccc12)C(=O)N[C@H](CCCNC(=N)N)C(=O)N[C@H](C)C(=O)N[C@H](CC(C)C)C(=O)N[C@H](Cc1c[nH]c2ccccc12)C(=O)N[C@H](CCCNC(=N)N)C(=O)N[C@H](CC(C)C)C(=O)N[C@H](CC(C)C)C(=O)N[C@H](CCCNC(=N)N)C(=O)N[C@H](CO)C(=O)N[C@H](CC(C)C)C(=O)N[C@H](Cc1c[nH]c2ccccc12)C(=O)N[C@H](CCCNC(=N)N)C(=O)N[C@H](CC(C)C)C(=O)N[C@H](CC(C)C)C(=O)N[C@H](Cc1c[nH]c2ccccc12)C(=O)N[C@H](CCCCN)C(=O)O` (H-G[dL][dW][dR][dA][dL][dW][dR][dL][dL][dR][dS][dL][dW][dR][dL][dL][dW][dK]-OH), which Mean size (nm) at 0 h, Nb (%) [3] is on record?
**A.** The Mean size (nm) at 0 h, Nb (%) was 30 nm.

**Q.** With H-GLWRALWRLLRSLWRLLWK-OH as the compound, how does the Tryptophan fluorescence emission maximum with siRNA read?
**A.** Its Tryptophan fluorescence emission maximum with siRNA is 340 nm.

**Q.** And the Tryptophan fluorescence emission maximum, free peptide [2]?
**A.** Its Tryptophan fluorescence emission maximum, free peptide is 348 nm.

— PMC5410048, “A retro-inverso cell-penetrating peptide for siRNA delivery” (Journal of Nanobiotechnology, 2017)
